{"source": "patent US5328902A", "about": "“7-(substituted)-9-[(substituted glycyl)amido]-6-demethyl-6-deoxytetracyclines” (American Cyanamid Co., priority 1992, dated 1994)", "format_in_all_cases": "cell-based", "key": {"[1]": {"tested_on": "E. coli ATCC 25922", "test": "MIC, agar dilution"}, "[2]": {"tested_on": "S. aureus UBMS 88-4", "test": "MIC, agar dilution"}, "[3]": {"tested_on": "S. hemolyticus AVHAH 88-3", "test": "MIC, agar dilution"}, "[4]": {"tested_on": "S. mariescens FPOR 8733", "test": "MIC, agar dilution"}, "[5]": {"tested_on": "S. aureus IVES 2943", "test": "MIC, agar dilution"}, "[6]": {"tested_on": "S. aureus UBMS 90-1 Tet M", "test": "microbe, parasite or virus in culture"}, "[7]": {"tested_on": "S. aureus ROSE (MP)", "test": "MIC, agar dilution"}, "[8]": {"tested_on": "S. aureus ATCC 29213", "test": "MIC, agar dilution"}, "[9]": {"tested_on": "S. aureus SMITH (MP)", "test": "MIC, agar dilution"}, "[10]": {"tested_on": "S. aureus IVES 1 983", "test": "MIC, agar dilution"}, "[11]": {"tested_on": "S. aureus NEMC 8769", "test": "MIC, agar dilution"}, "[12]": {"tested_on": "E. coli J3272 Tet C", "test": "microbe, parasite or virus in culture"}, "[13]": {"tested_on": "E. coli BAJ9003 IMP MUT", "test": "microbe, parasite or virus in culture"}, "[14]": {"tested_on": "Ps. acruginosa ATCC 27853", "test": "MIC, agar dilution"}, "[15]": {"tested_on": "S. aureus UBMS 90-2 Tet M", "test": "microbe, parasite or virus in culture"}, "[16]": {"tested_on": "E. coli J2175", "test": "MIC, agar dilution"}, "[17]": {"tested_on": "E. coli UBMS 88-1 Tet B", "test": "microbe, parasite or virus in culture"}, "[18]": {"tested_on": "E. coli UBMS 89-1 Tet M", "test": "microbe, parasite or virus in culture"}, "[19]": {"tested_on": "E. coli UBMS 90-5", "test": "MIC, agar dilution"}, "[20]": {"tested_on": "E. coli UBMS 89-2 Tet sens.", "test": "MIC, agar dilution"}, "[21]": {"tested_on": "E. faecalis ATCC 29212", "test": "MIC, agar dilution"}, "[22]": {"tested_on": "E. coli J3272 Tet D", "test": "microbe, parasite or virus in culture"}, "[23]": {"tested_on": "E. coli MC 4100 TNIOC Tet B", "test": "microbe, parasite or virus in culture"}, "[24]": {"tested_on": "E. coli PRP1 Tet A", "test": "microbe, parasite or virus in culture"}, "[25]": {"tested_on": "S. aureus UBMS 88-7 Tet K", "test": "microbe, parasite or virus in culture"}, "[26]": {"tested_on": "S. aureus UBMS 88-5 Tet M", "test": "microbe, parasite or virus in culture"}, "[27]": {"tested_on": "E. coli #311 (MP)", "test": "MIC, agar dilution"}, "[28]": {"tested_on": "S. aureus UBMS 90-3", "test": "MIC, agar dilution"}, "[29]": {"tested_on": "E. coli J3272 Tet sens.", "test": "MIC, agar dilution"}, "[30]": {"tested_on": "Enterococcus 12201", "test": "MIC, agar dilution", "conditions": "Enterococcus, 12201, 18 h"}, "[31]": {"tested_on": "E. coli UBMS 90-4 Tet M", "test": "microbe, parasite or virus in culture", "conditions": "Escherichia coli, UBMS904TETM, 18 h"}}, "note": "Read-outs that look alike come from different tables or passages of the source."}
{"smiles": "CN(C)c1cc(NC(=O)C2CCCN2C(=O)C(F)(F)F)c(O)c2c1CC1CC3[C@H](N(C)C)C(O)=C(C(N)=O)C(=O)[C@@]3(O)C(O)=C1C2=O.Cl.Cl", "note": "(stereo partly drawn) [A, [7S-(7alpha,10aalpha)]-N-[9-(Aminocarbonyl)4,7-bis(dimethylamino)-5,5a,6,6a,7,10,10a, 12-octahydro-l,8,10a,ll-tetrahydroxy-10,12-dioxo-2-naphthacenyl]-l-(trifluoroacetyl)-2-pyrrolidinecarboxamide dihydrochloride]", "values": [{"measurement": "MIC", "setting": "[1]; E. coli ATCC 25922", "result": 8, "unit": "µg/mL"}, {"measurement": "MIC", "setting": "[2]; S. aureus UBMS 88-4", "result": 4, "unit": "µg/mL"}, {"measurement": "MIC", "setting": "[3]; S. hemolyticus AVHAH 88-3", "result": 8, "unit": "µg/mL"}, {"measurement": "MIC", "setting": "[4]", "result": "> 32", "unit": "µg/mL"}, {"measurement": "MIC", "setting": "[5]; S. aureus IVES 2943", "result": 16, "unit": "µg/mL"}, {"measurement": "MIC", "setting": "[6]; S. aureus UBMS 90-1 Tet M", "result": 8, "unit": "µg/mL"}, {"measurement": "MIC", "setting": "[7]; S. aureus ROSE (MP)", "result": 32, "unit": "µg/mL"}, {"measurement": "MIC", "setting": "[8]; S. aureus ATCC 29213", "result": 4, "unit": "µg/mL"}, {"measurement": "MIC", "setting": "[9]; S. aureus SMITH (MP)", "result": 2, "unit": "µg/mL"}, {"measurement": "MIC", "setting": "[10]; S. aureus IVES 1 983", "result": 16, "unit": "µg/mL"}, {"measurement": "MIC", "setting": "[11]; S. aureus NEMC 8769", "result": 1, "unit": "µg/mL"}, {"measurement": "MIC", "setting": "[12]; E. coli J3272 Tet C", "result": 8, "unit": "µg/mL"}, {"measurement": "MIC", "setting": "[13]; E. coli BAJ9003 IMP MUT", "result": 1, "unit": "µg/mL"}, {"measurement": "MIC", "setting": "[14]; Ps. acruginosa ATCC 27853", "result": "> 32", "unit": "µg/mL"}, {"measurement": "MIC", "setting": "[15]; S. aureus UBMS 90-2 Tet M", "result": 2, "unit": "µg/mL"}, {"measurement": "MIC", "setting": "[16]; E. coli J2175", "result": 8, "unit": "µg/mL"}, {"measurement": "MIC", "setting": "[17]; E. coli UBMS 88-1 Tet B, 18 hours at 35° C.", "result": 8, "unit": "µg/mL"}, {"measurement": "MIC", "setting": "[18]; E. coli UBMS 89-1 Tet M", "result": 8, "unit": "µg/mL"}, {"measurement": "MIC", "setting": "[19]", "result": 4, "unit": "µg/mL"}, {"measurement": "MIC", "setting": "[20]; E. coli UBMS 89-2 Tet sens.", "result": 8, "unit": "µg/mL"}, {"measurement": "MIC", "setting": "[21]; E. faecalis ATCC 29212", "result": 2, "unit": "µg/mL"}, {"measurement": "MIC", "setting": "[22]; E. coli J3272 Tet D", "result": 2, "unit": "µg/mL"}, {"measurement": "MIC", "setting": "[23]; E. coli MC 4100 TNIOC Tet B", "result": 8, "unit": "µg/mL"}, {"measurement": "MIC", "setting": "[24]; E. coli PRP1 Tet A", "result": "> 32", "unit": "µg/mL"}, {"measurement": "MIC", "setting": "[25]; S. aureus UBMS 88-7 Tet K", "result": 16, "unit": "µg/mL"}, {"measurement": "MIC", "setting": "[26]; S. aureus UBMS 88-5 Tet M", "result": 4, "unit": "µg/mL"}, {"measurement": "MIC", "setting": "[27]; E. coli #311 (MP)", "result": 8, "unit": "µg/mL"}, {"measurement": "MIC", "setting": "[28]; S. aureus UBMS 90-3", "result": 1, "unit": "µg/mL"}, {"measurement": "MIC", "setting": "[29]", "result": 8, "unit": "µg/mL"}]}
{"smiles": "CN(C)[C@@H]1C(=O)C(C(N)=O)=C(O)[C@@]2(O)C(=O)C3=C(O)c4c(O)cccc4[C@@](C)(O)[C@H]3C[C@@H]12", "note": "[N, Tetracycline]", "values": [{"measurement": "MIC", "setting": "[1]; Escherichia coli, ATCC25922, 18 h", "result": 0.5, "unit": "µg/mL"}, {"measurement": "MIC", "setting": "[2]; Staphylococcus aureus, UBMS884, 18 h", "result": 0.06, "unit": "µg/mL"}, {"measurement": "MIC", "setting": "[3]; Streptococcus pyogenes, AVHAH883, 18 h", "result": 0.5, "unit": "µg/mL"}, {"measurement": "MIC", "setting": "[4]; 18 h, read-out: MIC", "result": 32, "unit": "µg/mL"}, {"measurement": "MIC", "setting": "[5]; Staphylococcus aureus, IVES2943, 18 h", "result": "> 32", "unit": "µg/mL"}, {"measurement": "MIC", "setting": "[6]; Staphylococcus aureus, UBMS901TETM, 18 h", "result": 32, "unit": "µg/mL"}, {"measurement": "MIC", "setting": "[30]", "result": 32, "unit": "µg/mL"}, {"measurement": "MIC", "setting": "[7]; Staphylococcus aureus, 18 h", "result": "> 32", "unit": "µg/mL"}, {"measurement": "MIC", "setting": "[8]; Staphylococcus aureus, ATCC29213, 18 h", "result": 0.06, "unit": "µg/mL"}, {"measurement": "MIC", "setting": "[9]; Staphylococcus aureus, 18 h", "result": 0.06, "unit": "µg/mL"}, {"measurement": "MIC", "setting": "[10]; Staphylococcus aureus, IVES1983, 18 h", "result": "> 32", "unit": "µg/mL"}, {"measurement": "MIC", "setting": "[11]; Staphylococcus aureus, NEMC8769, 18 h", "result": 0.03, "unit": "µg/mL"}, {"measurement": "MIC", "setting": "[12]; Escherichia coli, J3272TETC, 18 h", "result": "> 32", "unit": "µg/mL"}, {"measurement": "MIC", "setting": "[13]; Escherichia coli, BAJ9003IMPMUT, 18 h", "result": 0.25, "unit": "µg/mL"}, {"measurement": "MIC", "setting": "[14]; 18 h", "result": 8, "unit": "µg/mL"}, {"measurement": "MIC", "setting": "[15]; Staphylococcus aureus, UBMS902TETM, 18 h", "result": 32, "unit": "µg/mL"}, {"measurement": "MIC", "setting": "[31]", "result": 16, "unit": "µg/mL"}, {"measurement": "MIC", "setting": "[16]; Escherichia coli, J2175, 18 h", "result": 1, "unit": "µg/mL"}, {"measurement": "MIC", "setting": "[17]; Escherichia coli, UBMS881TETB, 18 h", "result": "> 32", "unit": "µg/mL"}, {"measurement": "MIC", "setting": "[18]; Escherichia coli, UBMS891TETM, 18 h", "result": 8, "unit": "µg/mL"}, {"measurement": "MIC", "setting": "[19]; Escherichia coli, UBMS905, 18 h, read-out: MIC", "result": 1, "unit": "µg/mL"}, {"measurement": "MIC", "setting": "[20]; Escherichia coli, 18 h", "result": 1, "unit": "µg/mL"}, {"measurement": "MIC", "setting": "[21]; Enterococcus faecalis, ATCC29212, 18 h", "result": 8, "unit": "µg/mL"}, {"measurement": "MIC", "setting": "[22]; Escherichia coli, J3272TETD, 18 h", "result": "> 32", "unit": "µg/mL"}, {"measurement": "MIC", "setting": "[23]; Escherichia coli, 18 h", "result": "> 32", "unit": "µg/mL"}, {"measurement": "MIC", "setting": "[24]; Escherichia coli, PRP1TETA, 18 h", "result": 32, "unit": "µg/mL"}, {"measurement": "MIC", "setting": "[25]; Staphylococcus aureus, UBMS887TETK, 18 h", "result": "> 32", "unit": "µg/mL"}, {"measurement": "MIC", "setting": "[26]; Staphylococcus aureus, UBMS885TETM, 18 h", "result": "> 32", "unit": "µg/mL"}, {"measurement": "MIC", "setting": "[27]; Escherichia coli, 18 h", "result": 1, "unit": "µg/mL"}, {"measurement": "MIC", "setting": "[28]; Staphylococcus aureus, UBMS903, 18 h", "result": 0.06, "unit": "µg/mL"}, {"measurement": "MIC", "setting": "[29]; Escherichia coli, 18 h, read-out: MIC", "result": 0.5, "unit": "µg/mL"}]}
